Assay results reported in ChEMBL document CHEMBL1124634, “Synthesis and antirhinovirus activity of 6-(dimethylamino)-2-(trifluoromethyl)-9-(substituted benzyl)-9H-purines” (J Med Chem, 1989).

Test system: Human rhinovirus sp.
Assay: Antiviral activity against rhinoviral 12 serotype in a plaque inhibition assay using monolayers of M-HeLa cells
Assay type: functional, organism-based
Details: not given

Q: Which IC50 does the source give for CN(C)c1nc(C(F)(F)F)nc2c1ncn2Cc1ccc(Cl)cc1 here?
A: 7.4 µM

Q: For CN(C)c1nc(C(F)(F)F)nc2c1ncn2Cc1ccc(S(C)(=O)=O)cc1, which IC50 is on record?
A: 6 µM

Q: With Cc1cc(Cn2cnc3c(N(C)C)nc(C(F)(F)F)nc32)ccc1Cl as the compound, how does the IC50 read?
A: 3.3 µM

Test system: Human rhinovirus sp.
Assay: Percent inhibitory activity at 8 uM against rhinoviral 13 serotype in a plaque inhibition assay using monolayers of M-HeLa cells
Assay type: functional
Details: not given

Q: Which Inhibition does the source give for Cc1cc(Cn2cnc3c(N(C)C)nc(C(F)(F)F)nc32)ccc1Cl here?
A: 13%

Test system: Human rhinovirus sp.
Assay: Percent inhibitory activity at 8 uM against rhinoviral 5 serotype in a plaque inhibition assay using monolayers of M-HeLa cells
Assay type: functional
Details: not given

Q: Which Inhibition does the source give for CN(C)c1nc(C(F)(F)F)nc2c1ncn2Cc1ccc(S(C)(=O)=O)cc1 here?
A: 40%

Test system: Human rhinovirus sp.
Assay: Antiviral activity against rhinoviral 5 serotype in a plaque inhibition assay using monolayers of M-HeLa cells
Assay type: functional, organism-based
Details: not given

Q: Which IC50 does the source give for CN(C)c1nc(C(F)(F)F)nc2c1ncn2Cc1ccc(Cl)cc1 here?
A: 8 µM

Q: Which IC50 does the source give for Cc1cc(Cn2cnc3c(N(C)C)nc(C(F)(F)F)nc32)ccc1Cl here?
A: > 8 µM

Test system: Human rhinovirus sp.
Assay: Antiviral activity against rhinoviral-19 serotype in a plaque inhibition assay using monolayers of M-HeLa cells
Assay type: functional, organism-based
Details: not given

Q: For CN(C)c1nc(C(F)(F)F)nc2c1ncn2Cc1ccc(S(C)(=O)=O)cc1, which IC50 is on record?
A: 9 µM

Q: Which IC50 does the source give for Cc1cc(Cn2cnc3c(N(C)C)nc(C(F)(F)F)nc32)ccc1Cl here?
A: 7.7 µM

Test system: not listed separately
Assay: Percent inhibitory activity at 8 uM against rhinoviral 8 serotype in a plaque inhibition assay using monolayers of M-HeLa cells
Assay type: functional, Homo sapiens
Details: not given

Q: For CN(C)c1nc(C(F)(F)F)nc2c1ncn2Cc1ccc(S(C)(=O)=O)cc1, which Inhibition is on record?
A: 36%

Test system: Human rhinovirus sp.
Assay: Antiviral activity against rhinoviral 14 serotype in a plaque inhibition assay using monolayers of M-HeLa cells
Assay type: functional, organism-based
Details: not given

Q: Which IC50 does the source give for CN(C)c1nc(C(F)(F)F)nc2c1ncn2Cc1ccc(Cl)cc1 here?
A: 4.3 µM

Q: For Cc1cc(Cn2cnc3c(N(C)C)nc(C(F)(F)F)nc32)ccc1Cl, which IC50 is on record?
A: 8 µM

Test system: Human rhinovirus sp.
Assay: Antiviral activity against rhinoviral 3 serotype in a plaque inhibition assay using monolayers of M-HeLa cells
Assay type: functional, organism-based
Details: not given

Q: Which IC50 does the source give for CN(C)c1nc(C(F)(F)F)nc2c1ncn2Cc1ccc(Cl)cc1 here?
A: 6.9 µM

Q: For CN(C)c1nc(C(F)(F)F)nc2c1ncn2Cc1ccc(S(C)(=O)=O)cc1, which IC50 is on record?
A: 4.7 µM

Test system: Human rhinovirus sp.
Assay: Percent inhibitory activity at 8 uM against rhinoviral 15 serotype in a plaque inhibition assay using monolayers of M-HeLa cells
Assay type: functional
Details: not given

Q: With CN(C)c1nc(C(F)(F)F)nc2c1ncn2Cc1ccc(S(C)(=O)=O)cc1 as the compound, how does the Inhibition read?
A: 47%

Test system: Human rhinovirus sp.
Assay: Antiviral activity against rhinoviral 8 serotype in a plaque inhibition assay using monolayers of M-HeLa cells
Assay type: functional, organism-based
Details: not given

Q: Which IC50 does the source give for CN(C)c1nc(C(F)(F)F)nc2c1ncn2Cc1ccc(Cl)cc1 here?
A: 5.7 µM

Q: For Cc1cc(Cn2cnc3c(N(C)C)nc(C(F)(F)F)nc32)ccc1Cl, which IC50 is on record?
A: > 8 µM

Test system: Human rhinovirus sp.
Assay: Antiviral activity against rhinoviral 16 serotype in a plaque inhibition assay using monolayers of M-HeLa cells
Assay type: functional, organism-based
Details: not given

Q: Which IC50 does the source give for CN(C)c1nc(C(F)(F)F)nc2c1ncn2Cc1ccc(S(C)(=O)=O)cc1 here?
A: 2.3 µM

Q: Which IC50 does the source give for Cc1cc(Cn2cnc3c(N(C)C)nc(C(F)(F)F)nc32)ccc1Cl here?
A: 0.84 µM

Test system: Human rhinovirus sp.
Assay: Antiviral activity against rhinoviral 21 serotype in a plaque inhibition assay using monolayers of M-HeLa cells
Assay type: functional, organism-based
Details: not given

Q: With CN(C)c1nc(C(F)(F)F)nc2c1ncn2Cc1ccc(Cl)cc1 as the compound, how does the IC50 read?
A: 7.4 µM

Q: Which IC50 does the source give for CN(C)c1nc(C(F)(F)F)nc2c1ncn2Cc1ccc(S(C)(=O)=O)cc1 here?
A: 9 µM

Q: With Cc1cc(Cn2cnc3c(N(C)C)nc(C(F)(F)F)nc32)ccc1Cl as the compound, how does the IC50 read?
A: 6.3 µM

Test system: Human rhinovirus sp.
Assay: (§1) Antiviral activity against rhinoviral 9 serotype in a plaque inhibition assay using monolayers of M-HeLa cells
Assay type: functional, organism-based
Details: not given

Q: With CN(C)c1nc(C(F)(F)F)nc2c1ncn2Cc1ccc(Cl)cc1 as the compound, how does the IC50 read?
A: 0.9 µM

Q: Which IC50 does the source give for Cc1cc(Cn2cnc3c(N(C)C)nc(C(F)(F)F)nc32)ccc1Cl here?
A: 1 µM

Test system: Human rhinovirus sp.
Assay: Antiviral activity against rhinoviral 31 serotype in a plaque inhibition assay using monolayers of M-HeLa cells
Assay type: functional, organism-based
Details: not given

Q: Which IC50 does the source give for CN(C)c1nc(C(F)(F)F)nc2c1ncn2Cc1ccc(Cl)cc1 here?
A: 5.3 µM

Q: For CN(C)c1nc(C(F)(F)F)nc2c1ncn2Cc1ccc(S(C)(=O)=O)cc1, which IC50 is on record?
A: 4.3 µM

Q: Which IC50 does the source give for Cc1cc(Cn2cnc3c(N(C)C)nc(C(F)(F)F)nc32)ccc1Cl here?
A: 9 µM

Test system: Human rhinovirus sp.
Assay: Antiviral activity against rhinoviral 30 serotype in a plaque inhibition assay using monolayers of M-HeLa cells
Assay type: functional, organism-based
Details: not given

Q: Which IC50 does the source give for CN(C)c1nc(C(F)(F)F)nc2c1ncn2Cc1ccc(Cl)cc1 here?
A: 6.5 µM

Test system: not listed separately
Assay: as §1
Assay type: functional, cell-based
Details: Homo sapiens

Q: For CN(C)c1nc(C(F)(F)F)nc2c1ncn2Cc1ccc(S(C)(=O)=O)cc1, which IC50 is on record?
A: 3.7 µM

Test system: Human rhinovirus sp.
Assay: Percent inhibitory activity at 8 uM against rhinoviral 30 serotype in a plaque inhibition assay using monolayers of M-HeLa cells
Assay type: functional
Details: not given

Q: For CN(C)c1nc(C(F)(F)F)nc2c1ncn2Cc1ccc(S(C)(=O)=O)cc1, which Inhibition is on record?
A: 32%

Q: Which Inhibition does the source give for Cc1cc(Cn2cnc3c(N(C)C)nc(C(F)(F)F)nc32)ccc1Cl here?
A: 31%

Test system: Human rhinovirus sp.
Assay: Antiviral activity against rhinoviral 19 serotype in a plaque inhibition assay using monolayers of M-HeLa cells
Assay type: functional, organism-based
Details: not given

Q: For CN(C)c1nc(C(F)(F)F)nc2c1ncn2Cc1ccc(Cl)cc1, which IC50 is on record?
A: 6.5 µM

Test system: Human rhinovirus sp.
Assay: Percent inhibitory activity at 8 uM against rhinoviral 14 serotype in a plaque inhibition assay using monolayers of M-HeLa cells
Assay type: functional
Details: not given

Q: With CN(C)c1nc(C(F)(F)F)nc2c1ncn2Cc1ccc(S(C)(=O)=O)cc1 as the compound, how does the Inhibition read?
A: 16%

Test system: not listed separately
Assay: Percent inhibitory activity at 8 uM against rhinoviral-18 serotype in a plaque inhibition assay using monolayers of M-HeLa cells
Assay type: functional, Homo sapiens
Details: not given

Q: For CN(C)c1nc(C(F)(F)F)nc2c1ncn2Cc1ccc(S(C)(=O)=O)cc1, which Inhibition is on record?
A: 29%

Test system: not listed separately
Assay: Percent inhibitory activity at 8 uM against rhinoviral 18 serotype in a plaque inhibition assay using monolayers of M-HeLa cells
Assay type: functional, Homo sapiens
Details: not given

Q: For Cc1cc(Cn2cnc3c(N(C)C)nc(C(F)(F)F)nc32)ccc1Cl, which Inhibition is on record?
A: 28 µM

Test system: not listed separately
Assay: Antiviral activity against rhinoviral 13 serotype in a plaque inhibition assay using monolayers of M-HeLa cells
Assay type: functional, cell-based
Details: Homo sapiens

Q: For CN(C)c1nc(C(F)(F)F)nc2c1ncn2Cc1ccc(Cl)cc1, which IC50 is on record?
A: > 8 µM

Q: With CN(C)c1nc(C(F)(F)F)nc2c1ncn2Cc1ccc(S(C)(=O)=O)cc1 as the compound, how does the IC50 read?
A: 4.2 µM

Test system: Human rhinovirus sp.
Assay: Antiviral activity against rhinoviral-1B serotype in a plaque inhibition assay using monolayers of M-HeLa cells
Assay type: functional, organism-based
Details: not given

Q: Which IC50 does the source give for CN(C)c1nc(C(F)(F)F)nc2c1ncn2Cc1ccc(Cl)cc1 here?
A: 0.03 µM

Q: With CN(C)c1nc(C(F)(F)F)nc2c1ncn2Cc1ccc(S(C)(=O)=O)cc1 as the compound, how does the IC50 read?
A: 0.5 µM

Q: Which IC50 does the source give for Cc1cc(Cn2cnc3c(N(C)C)nc(C(F)(F)F)nc32)ccc1Cl here?
A: 0.12 µM

Test system: not listed separately
Assay: Percent inhibitory activity at 8 uM against rhinoviral 2 serotype in a plaque inhibition assay using monolayers of M-HeLa cells
Assay type: functional, Homo sapiens
Details: not given

Q: With CN(C)c1nc(C(F)(F)F)nc2c1ncn2Cc1ccc(S(C)(=O)=O)cc1 as the compound, how does the Inhibition read?
A: 36%

Test system: Human rhinovirus sp.
Assay: Antiviral activity against rhinoviral-1A serotype in a plaque inhibition assay using monolayers of M-HeLa cells
Assay type: functional, organism-based
Details: not given

Q: With CN(C)c1nc(C(F)(F)F)nc2c1ncn2Cc1ccc(Cl)cc1 as the compound, how does the IC50 read?
A: 0.73 µM

Q: With CN(C)c1nc(C(F)(F)F)nc2c1ncn2Cc1ccc(S(C)(=O)=O)cc1 as the compound, how does the IC50 read?
A: 2.3 µM

Q: With Cc1cc(Cn2cnc3c(N(C)C)nc(C(F)(F)F)nc32)ccc1Cl as the compound, how does the IC50 read?
A: 1.4 µM

Test system: Human rhinovirus sp.
Assay: Percent inhibitory activity at 8 uM against rhinoviral 3 serotype in a plaque inhibition assay using monolayers of M-HeLa cells
Assay type: functional
Details: not given

Q: Which Inhibition does the source give for Cc1cc(Cn2cnc3c(N(C)C)nc(C(F)(F)F)nc32)ccc1Cl here?
A: 44%

Test system: Human rhinovirus sp.
Assay: Antiviral activity against rhinoviral 15 serotype in a plaque inhibition assay using monolayers of M-HeLa cells
Assay type: functional, organism-based
Details: not given

Q: Which IC50 does the source give for CN(C)c1nc(C(F)(F)F)nc2c1ncn2Cc1ccc(Cl)cc1 here?
A: 3.3 µM

Q: With Cc1cc(Cn2cnc3c(N(C)C)nc(C(F)(F)F)nc32)ccc1Cl as the compound, how does the IC50 read?
A: 6.1 µM

Test system: Human rhinovirus sp.
Assay: Antiviral activity against rhinoviral 4 serotype in a plaque inhibition assay using monolayers of M-HeLa cells
Assay type: functional, organism-based
Details: not given

Q: With CN(C)c1nc(C(F)(F)F)nc2c1ncn2Cc1ccc(Cl)cc1 as the compound, how does the IC50 read?
A: 6.1 µM

Q: With CN(C)c1nc(C(F)(F)F)nc2c1ncn2Cc1ccc(S(C)(=O)=O)cc1 as the compound, how does the IC50 read?
A: 8.8 µM

Q: Which IC50 does the source give for Cc1cc(Cn2cnc3c(N(C)C)nc(C(F)(F)F)nc32)ccc1Cl here?
A: 7.6 µM

Test system: Human rhinovirus sp.
Assay: Antiviral activity against rhinoviral 2 serotype in a plaque inhibition assay using monolayers of M-HeLa cells
Assay type: functional, organism-based
Details: not given

Q: With CN(C)c1nc(C(F)(F)F)nc2c1ncn2Cc1ccc(Cl)cc1 as the compound, how does the IC50 read?
A: 6.6 µM

Q: For Cc1cc(Cn2cnc3c(N(C)C)nc(C(F)(F)F)nc32)ccc1Cl, which IC50 is on record?
A: 5.2 µM

Test system: Human rhinovirus sp.
Assay: Antiviral activity against rhinoviral 29 serotype in a plaque inhibition assay using monolayers of M-HeLa cells
Assay type: functional, organism-based
Details: not given

Q: Which IC50 does the source give for CN(C)c1nc(C(F)(F)F)nc2c1ncn2Cc1ccc(Cl)cc1 here?
A: 2.5 µM

Q: With CN(C)c1nc(C(F)(F)F)nc2c1ncn2Cc1ccc(S(C)(=O)=O)cc1 as the compound, how does the IC50 read?
A: 3 µM

Q: With Cc1cc(Cn2cnc3c(N(C)C)nc(C(F)(F)F)nc32)ccc1Cl as the compound, how does the IC50 read?
A: 7 µM

Test system: Human rhinovirus sp.
Assay: Antiviral activity against rhinoviral 18 serotype in a plaque inhibition assay using monolayers of M-HeLa cells
Assay type: functional, organism-based
Details: not given

Q: For CN(C)c1nc(C(F)(F)F)nc2c1ncn2Cc1ccc(Cl)cc1, which IC50 is on record?
A: > 8 µM
